Laboratory results reported in ChEMBL document CHEMBL1287709, “Trifluoromethylphenyl as P2 for ketoamide-based cathepsin S inhibitors” (Bioorg Med Chem Lett, 2010).

Columns and labels:
Cathepsin K = biological target: T1, Cathepsin K (Homo sapiens, UniProt P43235); test: Inhibition of human cathepsin K by fluorescence assay
T1 sequence (P43235 whole entry): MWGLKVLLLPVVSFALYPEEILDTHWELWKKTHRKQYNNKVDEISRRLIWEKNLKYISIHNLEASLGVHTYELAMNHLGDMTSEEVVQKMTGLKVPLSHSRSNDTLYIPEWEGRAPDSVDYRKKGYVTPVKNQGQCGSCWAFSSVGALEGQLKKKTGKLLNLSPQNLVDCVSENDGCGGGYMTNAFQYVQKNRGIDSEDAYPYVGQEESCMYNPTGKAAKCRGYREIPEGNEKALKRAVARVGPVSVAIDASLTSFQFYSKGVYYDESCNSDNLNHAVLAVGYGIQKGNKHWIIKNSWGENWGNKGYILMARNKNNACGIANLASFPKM

Cathepsin S [1] = biological target: T2, Cathepsin S (Homo sapiens, UniProt P25774); test: Inhibition of human cathepsin S by fluorescence assay
T2 sequence (P25774 whole entry): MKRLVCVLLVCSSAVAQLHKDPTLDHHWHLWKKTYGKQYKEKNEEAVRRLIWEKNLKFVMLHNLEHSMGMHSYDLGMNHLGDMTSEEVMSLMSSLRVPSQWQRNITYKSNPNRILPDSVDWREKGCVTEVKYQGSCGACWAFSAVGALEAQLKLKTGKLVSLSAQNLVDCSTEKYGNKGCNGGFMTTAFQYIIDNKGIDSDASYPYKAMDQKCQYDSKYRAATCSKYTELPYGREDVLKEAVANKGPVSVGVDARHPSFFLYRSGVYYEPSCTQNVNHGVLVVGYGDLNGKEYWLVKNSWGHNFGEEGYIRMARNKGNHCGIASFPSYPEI

Procathepsin L = Procathepsin L (Homo sapiens, UniProt P07711); test: Inhibition of human cathepsin L by fluorescence assay
Procathepsin L, sequence (P07711 whole entry): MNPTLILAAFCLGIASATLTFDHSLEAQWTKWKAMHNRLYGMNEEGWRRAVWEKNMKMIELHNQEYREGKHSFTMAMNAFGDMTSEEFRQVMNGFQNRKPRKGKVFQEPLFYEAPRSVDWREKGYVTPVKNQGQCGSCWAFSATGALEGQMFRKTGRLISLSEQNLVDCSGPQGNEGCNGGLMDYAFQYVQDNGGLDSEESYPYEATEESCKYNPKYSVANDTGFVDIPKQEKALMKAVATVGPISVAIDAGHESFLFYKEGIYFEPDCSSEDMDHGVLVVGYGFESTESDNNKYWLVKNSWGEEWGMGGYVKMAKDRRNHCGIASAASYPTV

Cathepsin L2 = biological target: T3, Cathepsin L2 (Homo sapiens, UniProt O60911); test: Inhibition of human cathepsin V by fluorescence assay
T3 sequence (O60911 whole entry): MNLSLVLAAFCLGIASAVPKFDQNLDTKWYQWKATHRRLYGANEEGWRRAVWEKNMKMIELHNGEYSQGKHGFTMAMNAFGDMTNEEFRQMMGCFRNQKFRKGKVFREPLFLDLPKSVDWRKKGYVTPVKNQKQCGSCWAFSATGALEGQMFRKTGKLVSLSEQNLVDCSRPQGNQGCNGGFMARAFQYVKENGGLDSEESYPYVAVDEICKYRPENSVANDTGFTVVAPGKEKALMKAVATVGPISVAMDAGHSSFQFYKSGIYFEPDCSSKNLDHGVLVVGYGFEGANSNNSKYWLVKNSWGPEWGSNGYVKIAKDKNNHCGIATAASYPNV

Cathepsin S [2] = biological target: T2, Cathepsin S; test: Inhibition of cathepsin S in human JY cells assessed as Lip10 accumulation by Western blotting; type: cell-based
Cathepsin B = Cathepsin B (Homo sapiens, UniProt P07858); test: Inhibition of human cathepsin B by fluorescence assay

SMILES | IC50 (Cathepsin K) | IC50 (Cathepsin S [1]) | IC50 (Procathepsin L) | IC50 (Cathepsin L2) | IC50 (Cathepsin S [2]) | IC50 (Cathepsin B)
N#CCNC(=O)c1cccc(C(F)(F)F)c1 | > 10000 nM | > 10000 nM |  |  |  | 
O=CCNC(=O)c1cccc(C(F)(F)F)c1 | > 10000 nM | > 10000 nM |  |  |  | 
CCC(C=O)NC(=O)c1cccc(C(F)(F)F)c1 (stereo not drawn) |  | 1070 nM |  |  |  | 
CCC(C=O)NC(=O)c1cccc(C(F)(F)F)c1Cl (stereo not drawn) | 32 nM | 31 nM |  |  |  | 
CCC(C=O)NC(=O)c1cccc(C(F)(F)F)c1F (stereo not drawn) |  | 36 nM |  |  |  | 
CCC(C=O)NC(=O)c1cccc(C(F)(F)F)c1C (stereo not drawn) |  | 18 nM |  |  |  | 
CC(C=O)NC(=O)c1cccc(C(F)(F)F)c1Cl (stereo not drawn) |  | 110 nM |  |  |  | 
CCC(C=O)NC(=O)c1cccc(C(F)(F)F)c1OC (stereo not drawn) |  | 692 nM |  |  |  | 
CC(NC(=O)c1cccc(C(F)(F)F)c1Cl)C(=O)C(N)=O (stereo not drawn) | 107 nM | 30.9 nM |  |  |  | 
CC(NC(=O)c1cccc(C(F)(F)F)c1Cl)C(=O)C(=O)Nc1cc[nH]n1 (stereo not drawn) | 51.3 nM | 14.1 nM |  |  |  | 
Cc1cc(NC(=O)C(=O)C(C)NC(=O)c2cccc(C(F)(F)F)c2Cl)[nH]n1 (stereo not drawn) | 26.3 nM | 10.5 nM |  |  |  | 
CC(NC(=O)c1cccc(C(F)(F)F)c1Cl)C(=O)C(=O)Nc1ccn(C)n1 (stereo not drawn) | 33.1 nM | 8.5 nM |  |  |  | 
CCC(NC(=O)c1cccc(C(F)(F)F)c1Cl)C(=O)C(=O)Nc1ccn[nH]1 (stereo not drawn) | 11.7 nM | 2.3 nM | 891 nM | 29.5 nM | 1300 nM | 5750 nM
CCOc1ccc(C(=O)NC(C)C(=O)C(N)=O)c(Cl)c1C(F)(F)F (stereo not drawn) | 195 nM | 11 nM |  |  |  | 
CCOc1ccc(C(=O)NC(C)C(=O)C(=O)Nc2ccn[nH]2)c(Cl)c1C(F)(F)F (stereo not drawn) | 91.2 nM | 2.9 nM |  |  |  | 
CC(NC(=O)c1ccc(OCc2ccccn2)c(C(F)(F)F)c1Cl)C(=O)C(N)=O (stereo not drawn) | 37.2 nM | 4.8 nM |  |  |  | 
CCC(NC(=O)c1ccc(OCc2ccccn2)c(C(F)(F)F)c1Cl)C(=O)C(N)=O (stereo not drawn) |  | 1.1 nM |  |  | 1920 nM | 
CC(NC(=O)c1ccc(OCc2ccccn2)c(C(F)(F)F)c1Cl)C(=O)C(=O)Nc1ccn(C)n1 (stereo not drawn) | 12.9 nM | 1 nM | 479 nM | 36.3 nM |  | 15100 nM
CCC(NC(=O)c1ccc(OCc2ccccn2)c(C(F)(F)F)c1Cl)C(=O)C(=O)Nc1ccn(C)n1 (stereo not drawn) | 20.9 nM | 1.1 nM | 141 nM | 16.6 nM | 78 nM | 3240 nM
CC(C)C(NC(=O)c1ccc(OCc2ccccn2)c(C(F)(F)F)c1Cl)C(=O)C(=O)Nc1ccn(C)n1 (stereo not drawn) | 11.5 nM | 2.3 nM |  |  |  | 
CCCCC(NC(=O)c1ccc(OCc2ccccn2)c(C(F)(F)F)c1Cl)C(=O)C(=O)Nc1ccn(C)n1 (stereo not drawn) | 47.9 nM | 1.9 nM |  |  |  | 
CNC(=O)C(=O)C(C)NC(=O)c1ccc(OCc2ccccn2)c(C(F)(F)F)c1Cl (stereo not drawn) | 46.8 nM | 19.5 nM | > 10000 nM | 1120 nM |  | > 10000 nM
CC(NC(=O)c1ccc(OCc2ccccn2)c(C(F)(F)F)c1Cl)C(=O)C(=O)N(C)C (stereo not drawn) | > 10000 nM | > 10000 nM | > 10000 nM | > 10000 nM |  | > 10000 nM
